According to patent US9663519B2, “Compounds useful as inhibitors of ATR kinase” (Vertex Pharmaceuticals Incorporated, priority 2013, dated 2017):

Experiments:
[1] = molecular target: full-length ATR (Homo sapiens (Human), UniProt Q13535); assay: ATR Inhibition Assay (radioactive-phosphate incorporation); assay type: biochemical; details: Ki(app); 5 nM full-length ATR, 10 μM ATP, 25° C.
Procedure: Compounds were screened for their ability to inhibit ATR kinase using a radioactive-phosphate incorporation assay. Assays were carried out in a mixture of 50 mM Tris/HCl (pH 7.5), 10 mM MgCl2 and 1 mM DTT. Final substrate concentrations were 10 μM [γ-33P]ATP (3 mCi 33P ATP/mmol ATP, Perkin Elmer) and 800 μM target peptide (ASELPASQPQPFSAKKK (SEQ. ID NO: 1)).
Assays were carried out at 25° C. in the presence of 5 nM full-length ATR. An assay stock buffer solution was prepared containing all of the reagents listed above, with the exception of ATP and the test compound of interest. 13.5 μL of the stock solution was placed in a 96 well plate followed by addition of 2 μL of DMSO stock containing serial dilutions of the test compound (typically starting from a final concentration of 15 μM with 3-fold serial dilutions) in duplicate (final DMSO concentration 7%). The plate was pre-incubated for 10 minutes at 25° C. and the reaction initiated by addition of 15 μL [γ-33P]ATP (final concentration 10 μM).
The reaction was stopped after […] by the addition of 30 μL 0.1M phosphoric acid containing 2 mM ATP. A multiscreen phosphocellulose filter 96-well plate (Millipore, Cat no. MAPHN0B50) was pretreated with 100 μL 0.2M phosphoric acid prior to the addition of 45 μL of the stopped assay mixture. The plate was washed with 5×200 μL 0.2M phosphoric acid. After drying, 100 μL Optiphase ‘SuperMix’ liquid scintillation cocktail (Perkin Elmer) was added to the well prior to scintillation counting (1450 Microbeta Liquid Scintillation Counter, Wallac).
After removing mean background values for all of the data points, Ki(app) data were calculated from non-linear regression analysis of the initial rate data using the Prism software package (GraphPad Prism version 3.0cx for Macintosh, GraphPad Software, San Diego Calif., USA).

[2] = tested on: HCT116 colorectal cancer cells; assay: Cisplatin Sensitization Assay (96 h cell viability MTS); assay type: cell-based; details: Cisplatin sensitization value: concentration of compound required to reduce the IC50 of Cisplatin alone by at least 3-fold; HCT116, 96 h MTS
Procedure: Compounds can be screened for their ability to sensitize HCT116 colorectal cancer cells to Cisplatin using a 96 h cell viability (MTS) assay. […] Compounds and Cisplatin are then both added simultaneously to the cell media in 2-fold serial dilutions from a top final concentration of 10 μM as a full matrix of concentrations in a final cell volume of 200 μl, and the cells are then incubated at 37° C. in 5% CO2. After 96 h, 40 μl of MTS reagent (Promega G358a) is added to each well and the cells are incubated for 1 h at 37° C. in 5% CO2. Finally, absorbance is measured at 490 nm using a SpectraMax Plus 384 reader (Molecular Devices) and the concentration of compound required to reduce the IC50 of Cisplatin alone by at least 3-fold (to 1 decimal place) can be reported.

full-length ATR, sequence (Q13535 whole entry): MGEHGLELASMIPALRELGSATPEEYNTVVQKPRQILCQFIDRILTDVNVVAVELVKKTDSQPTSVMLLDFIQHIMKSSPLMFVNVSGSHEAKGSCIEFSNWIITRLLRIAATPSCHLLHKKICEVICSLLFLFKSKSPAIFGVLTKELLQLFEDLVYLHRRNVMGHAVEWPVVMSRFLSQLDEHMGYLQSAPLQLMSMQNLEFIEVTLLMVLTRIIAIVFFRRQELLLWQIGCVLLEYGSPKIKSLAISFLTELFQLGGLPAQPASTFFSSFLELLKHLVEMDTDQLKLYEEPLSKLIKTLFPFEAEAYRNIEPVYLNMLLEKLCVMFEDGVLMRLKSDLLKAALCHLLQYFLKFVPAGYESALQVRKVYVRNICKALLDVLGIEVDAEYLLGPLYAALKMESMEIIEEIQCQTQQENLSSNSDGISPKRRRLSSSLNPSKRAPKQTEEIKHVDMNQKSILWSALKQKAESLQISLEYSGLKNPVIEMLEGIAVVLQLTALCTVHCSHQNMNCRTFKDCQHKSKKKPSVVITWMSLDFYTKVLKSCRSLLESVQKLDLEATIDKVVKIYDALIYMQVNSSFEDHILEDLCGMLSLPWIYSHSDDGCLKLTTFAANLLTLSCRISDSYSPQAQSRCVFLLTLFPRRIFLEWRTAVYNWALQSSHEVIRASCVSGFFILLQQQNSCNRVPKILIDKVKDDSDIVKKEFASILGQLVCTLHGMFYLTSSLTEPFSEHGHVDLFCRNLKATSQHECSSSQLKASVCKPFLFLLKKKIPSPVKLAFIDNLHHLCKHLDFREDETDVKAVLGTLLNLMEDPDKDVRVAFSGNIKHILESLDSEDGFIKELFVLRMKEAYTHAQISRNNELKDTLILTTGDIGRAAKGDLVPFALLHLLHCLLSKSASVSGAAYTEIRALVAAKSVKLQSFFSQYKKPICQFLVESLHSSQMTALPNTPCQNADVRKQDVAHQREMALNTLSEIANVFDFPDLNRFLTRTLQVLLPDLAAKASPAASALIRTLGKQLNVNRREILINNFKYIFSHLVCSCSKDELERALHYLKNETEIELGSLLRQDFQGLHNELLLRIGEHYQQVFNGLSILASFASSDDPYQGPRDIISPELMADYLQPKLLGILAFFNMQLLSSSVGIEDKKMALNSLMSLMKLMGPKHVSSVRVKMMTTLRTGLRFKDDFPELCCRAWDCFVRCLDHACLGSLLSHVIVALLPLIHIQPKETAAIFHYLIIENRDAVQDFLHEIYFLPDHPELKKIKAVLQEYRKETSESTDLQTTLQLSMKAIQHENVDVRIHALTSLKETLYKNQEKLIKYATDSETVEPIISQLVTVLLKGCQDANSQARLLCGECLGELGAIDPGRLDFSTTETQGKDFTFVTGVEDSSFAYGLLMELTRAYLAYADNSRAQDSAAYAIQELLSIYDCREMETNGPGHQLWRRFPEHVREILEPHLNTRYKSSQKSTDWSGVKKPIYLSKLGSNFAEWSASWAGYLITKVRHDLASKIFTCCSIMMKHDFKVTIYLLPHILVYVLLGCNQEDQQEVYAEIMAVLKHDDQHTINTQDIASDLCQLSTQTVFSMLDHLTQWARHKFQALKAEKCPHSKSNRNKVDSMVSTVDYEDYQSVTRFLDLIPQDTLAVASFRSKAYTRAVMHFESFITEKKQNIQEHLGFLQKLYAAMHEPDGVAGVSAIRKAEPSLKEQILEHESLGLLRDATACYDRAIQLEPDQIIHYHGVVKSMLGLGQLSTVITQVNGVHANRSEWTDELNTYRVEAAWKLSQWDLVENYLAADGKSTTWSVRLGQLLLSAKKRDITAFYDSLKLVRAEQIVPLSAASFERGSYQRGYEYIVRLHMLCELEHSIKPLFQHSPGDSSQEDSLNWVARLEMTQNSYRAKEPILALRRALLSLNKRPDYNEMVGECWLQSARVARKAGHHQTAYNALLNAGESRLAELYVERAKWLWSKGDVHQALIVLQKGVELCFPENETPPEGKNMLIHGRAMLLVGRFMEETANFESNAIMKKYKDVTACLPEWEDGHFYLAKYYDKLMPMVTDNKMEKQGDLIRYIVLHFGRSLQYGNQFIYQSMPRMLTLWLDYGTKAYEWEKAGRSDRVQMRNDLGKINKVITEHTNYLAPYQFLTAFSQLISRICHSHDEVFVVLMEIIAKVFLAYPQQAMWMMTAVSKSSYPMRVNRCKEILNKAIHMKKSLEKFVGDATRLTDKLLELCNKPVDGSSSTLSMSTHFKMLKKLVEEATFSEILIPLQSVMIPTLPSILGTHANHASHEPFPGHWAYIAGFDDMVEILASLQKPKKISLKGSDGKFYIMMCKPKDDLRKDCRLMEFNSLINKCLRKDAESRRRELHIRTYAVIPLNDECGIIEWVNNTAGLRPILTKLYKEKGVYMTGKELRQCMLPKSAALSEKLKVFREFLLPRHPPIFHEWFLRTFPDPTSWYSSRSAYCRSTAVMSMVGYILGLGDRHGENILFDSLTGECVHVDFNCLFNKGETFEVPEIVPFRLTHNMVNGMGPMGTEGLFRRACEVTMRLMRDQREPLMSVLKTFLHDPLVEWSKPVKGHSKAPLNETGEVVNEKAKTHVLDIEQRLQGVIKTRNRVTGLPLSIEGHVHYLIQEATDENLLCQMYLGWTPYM

Compound | Ki [1] [nM] | Synergy with Cisplatin [2]
Cc1ccncc1NC(=O)c1c(N)nn2cc3c(nc12)CCNC3 [Compound I-1, 2-amino-N-(4-methylpyridin-3-yl)-5,6,7,8-tetrahydropyrazolo[1,5-a]pyrido[4,3-d]pyrimidine-3-carboxamide] | 10 to 1000 | ++ (Cisplatin sensitization value >0.02 μM but <0.2 μM)
COc1ccncc1NC(=O)c1c(N)nn2cc3c(nc12)CCNC3 [Compound I-2, 2-amino-N-(4-methoxypyridin-3-yl)-5,6,7,8-tetrahydropyrazolo[1,5-a]pyrido[4,3-d]pyrimidine-3-carboxamide] | 10 to 1000 | ++ (Cisplatin sensitization value >0.02 μM but <0.2 μM)
CC(C)Oc1ccncc1NC(=O)c1c(N)nn2cc3c(nc12)CCNC3 [Compound I-3, 2-amino-N-(4-isopropoxypyridin-3-yl)-5,6,7,8-tetrahydropyrazolo[1,5-a]pyrido[4,3-d]pyrimidine-3-carboxamide] | 10 to 1000 | +++ (Cisplatin sensitization value of <0.02 μM)
Nc1nn2cc3c(nc2c1C(=O)Nc1cnccc1OCC(F)(F)F)CCNC3 [Compound I-4, 2-amino-N-(4-(2,2,2-trifluoroethoxy)pyridin-3-yl)-5,6,7,8-tetrahydropyrazolo[1,5-a]pyrido[4,3-d]pyrimidine-3-carboxamide] | 10 to 1000 | +++ (Cisplatin sensitization value of <0.02 μM)
COc1c(Cl)cncc1NC(=O)c1c(N)nn2cc3c(nc12)CCNC3 [Compound I-5, 2-amino-N-(5-chloro-4-methoxypyridin-3-yl)-5,6,7,8-tetrahydropyrazolo[1,5-a]pyrido[4,3-d]pyrimidine-3-carboxamide] | 10 to 1000 | ++ (Cisplatin sensitization value >0.02 μM but <0.2 μM)
COc1cc(Cl)ncc1NC(=O)c1c(N)nn2cc3c(nc12)CCNC3 [Compound I-6, 2-amino-N-(6-chloro-4-methoxypyridin-3-yl)-5,6,7,8-tetrahydropyrazolo[1,5-a]pyrido[4,3-d]pyrimidine-3-carboxamide] | 10 to 1000 | ++ (Cisplatin sensitization value >0.02 μM but <0.2 μM)
COc1cc(Cl)ncc1NC(=O)c1c(N)nn2cc3c(nc12)CCN(C)C3 [Compound I-7, 2-amino-N-(6-chloro-4-methoxypyridin-3-yl)-7-methyl-5,6,7,8-tetrahydropyrazolo[1,5-a]pyrido[4,3-d]pyrimidine-3-carboxamide] | 10 to 1000 | ++ (Cisplatin sensitization value >0.02 μM but <0.2 μM)
Nc1nn2cc3c(nc2c1C(=O)Nc1cnccc1OC1CCOCC1)CCNC3 [Compound I-8, 2-amino-N-(4-((tetrahydro-2H-pyran-4-yl)oxy)pyridin-3-yl)-5,6,7,8-tetrahydropyrazolo[1,5-a]pyrido[4,3-d]pyrimidine-3-carboxamide] | 10 to 1000 | ++ (Cisplatin sensitization value >0.02 μM but <0.2 μM)
COc1ncncc1NC(=O)c1c(N)nn2cc3c(nc12)CCNC3 [Compound I-9, 2-amino-N-(4-methoxypyrimidin-5-yl)-5,6,7,8-tetrahydropyrazolo[1,5-a]pyrido[4,3-d]pyrimidine-3-carboxamide] | 10 to 1000 | + (Cisplatin sensitization value >0.2 μM but <5 μM)
CC(C)Oc1ncncc1NC(=O)c1c(N)nn2cc3c(nc12)CCNC3 [Compound I-10, 2-amino-N-(4-isopropoxypyrimidin-5-yl)-5,6,7,8-tetrahydropyrazolo[1,5-a]pyrido[4,3-d]pyrimidine-3-carboxamide] | 10 to 1000 | ++ (Cisplatin sensitization value >0.02 μM but <0.2 μM)
CN1CCc2nc3c(C(=O)Nc4cnccc4C4CC4)c(N)nn3cc2C1 [Compound I-11, 2-amino-N-(4-cyclopropylpyridin-3-yl)-7-methyl-5,6,7,8-tetrahydropyrazolo[1,5-a]pyrido[4,3-d]pyrimidine-3-carboxamide] | 10 to 1000 | +++ (Cisplatin sensitization value of <0.02 μM)
CN1CCc2nc3c(C(=O)Nc4cncc(F)c4C4CC4)c(N)nn3cc2C1 [Compound I-12, 2-amino-N-(4-cyclopropyl-5-fluoropyridin-3-yl)-7-methyl-5,6,7,8-tetrahydropyrazolo[1,5-a]pyrido[4,3-d]pyrimidine-3-carboxamide] | 10 to 1000 | ++ (Cisplatin sensitization value >0.02 μM but <0.2 μM)
COc1ccncc1NC(=O)c1c(N)nn2cc3c(nc12)CCN(C)C3 [Compound I-13, 2-amino-N-(4-methoxypyridin-3-yl)-7-methyl-5,6,7,8-tetrahydropyrazolo[1,5-a]pyrido[4,3-d]pyrimidine-3-carboxamide] | 10 to 1000 | ++ (Cisplatin sensitization value >0.02 μM but <0.2 μM)
CN1CCc2nc3c(C(=O)Nc4cnccc4OC4COC4)c(N)nn3cc2C1 [Compound I-14, 2-amino-7-methyl-N-(4-(oxetan-3-yloxy)pyridin-3-yl)-5,6,7,8-tetrahydropyrazolo[1,5-a]pyrido[4,3-d]pyrimidine-3-carboxamide] | 10 to 1000 | ++ (Cisplatin sensitization value >0.02 μM but <0.2 μM)
CN1CCc2nc3c(C(=O)Nc4cncnc4C4CC4)c(N)nn3cc2C1 [Compound I-15, 2-amino-N-(4-cyclopropylpyrimidin-5-yl)-7-methyl-5,6,7,8-tetrahydropyrazolo[1,5-a]pyrido[4,3-d]pyrimidine-3-carboxamide] | 10 to 1000 | ++ (Cisplatin sensitization value >0.02 μM but <0.2 μM)
CC(C)Oc1ncncc1NC(=O)c1c(N)nn2cc3c(nc12)CCN(C)C3 [Compound I-16, 2-amino-N-(4-isopropoxypyrimidin-5-yl)-7-methyl-5,6,7,8-tetrahydropyrazolo[1,5-a]pyrido[4,3-d]pyrimidine-3-carboxamide] | 10 to 1000 | ++ (Cisplatin sensitization value >0.02 μM but <0.2 μM)
COc1ccncc1NC(=O)c1c(N)nn2cc3c(nc12)CCN(C(C)C)C3 [Compound I-17, 2-amino-7-isopropyl-N-(4-methoxypyridin-3-yl)-5,6,7,8-tetrahydropyrazolo[1,5-a]pyrido[4,3-d]pyrimidine-3-carboxamide] | 10 to 1000 | ++ (Cisplatin sensitization value >0.02 μM but <0.2 μM)
COc1ccncc1NC(=O)c1c(N)nn2cc3c(nc12)CCN(C1CC1)C3 [Compound I-18, 2-amino-7-cyclopropyl-N-(4-methoxypyridin-3-yl)-5,6,7,8-tetrahydropyrazolo[1,5-a]pyrido[4,3-d]pyrimidine-3-carboxamide] | 10 to 1000 | ++ (Cisplatin sensitization value >0.02 μM but <0.2 μM)
COc1ccncc1NC(=O)c1c(N)nn2cc3c(nc12)CCN(CCF)C3 [Compound I-19, 2-amino-7-(2-fluoroethyl)-N-(4-methoxypyridin-3-yl)-5,6,7,8-tetrahydropyrazolo[1,5-a]pyrido[4,3-d]pyrimidine-3-carboxamide] | 10 to 1000 | ++ (Cisplatin sensitization value >0.02 μM but <0.2 μM)
Nc1nn2cc3c(nc2c1C(=O)Nc1cnccc1-c1ccccc1)CCN(C1COC1)C3 [Compound I-23, 2-amino-7-(oxetan-3-yl)-N-(4-phenylpyridin-3-yl)-5,6,7,8-tetrahydropyrazolo[1,5-a]pyrido[4,3-d]pyrimidine-3-carboxamide] | 10 to 1000 | –
COc1ccncc1NC(=O)c1c(N)nn2cc3c(nc12)CCN(C(C)(C)C)C3 [Compound I-29, 2-amino-7-(tert-butyl)-N-(4-methoxypyridin-3-yl)-5,6,7,8-tetrahydropyrazolo[1,5-a]pyrido[4,3-d]pyrimidine-3-carboxamide] | 10 to 1000 | –
Cn1cncc1-c1ccncc1NC(=O)c1c(N)nn2cc3c(nc12)CCN(C1COC1)C3 [Compound I-32, 2-amino-N-(4-(1-methyl-1H-imidazol-5-yl)pyridin-3-yl)-7-(oxetan-3-yl)-5,6,7,8-tetrahydropyrazolo[1,5-a]pyrido[4,3-d]pyrimidine-3-carboxamide] | 10 to 1000 | –
